Measurements from patent publication US20070270418A1, “Inhibitors of P38 and Methods of Using the Same” (priority 2003, published 2007).

Legend:
p38β = target: T1, p38β (Homo sapiens, UniProt Q15759); test: Kinase selectivity, ATF2 phosphorylation ELISA; type: biochemical
T1 construct: p38 MAP Kinases are recombinant human full-length proteins with an amino-terminal GST fusion; GST (N); purchased Upstate (Charlottesville, Va.); host or cells: E. coli
Procedure: All kinases and the substrate ATF2 are acquired from Upstate (Charlottesville, Va.). p38 MAP Kinases are recombinant human full-length proteins with an amino-terminal GST fusion, expressed in and purified from E. coli. ATF2 is a GST fusion protein containing amino acids 19-96 of human ATF2 expressed in E. coli. All proteins were aliquoted and stored at −80° C.
p38 MAP Kinase assays are performed using an assay buffer containing 25 mM HEPES, pH 7.5, 10 mM MgCl2, 2 mM DTT, 20 mM β-glycerophosphate, 0.1 mM Na3VO4, 40 μM ATP and 1.25 μM of ATF2, together with 6 ng of p38α protein, 12 ng p38β protein, 1.5 ng p38γ, or 0.4 ng JNK2α2. Compounds are serially diluted in DMSO and 2 μL of test compound at 25× final concentration is used. The vehicle control receives DMSO only. Test compounds are pre-incubated with 20 μl of enzyme in kinase buffer (25 mM HEPES, pH 7.5, 10 mM MgCl2, 2 mM DTT, 20 mM 3-glycerophosphate and 0.1 mM Na3VO4) at room temperature for 15 minutes. […] The reactions are incubated for 30 minutes at 37° C. and terminated by the addition of 18 μl of 200 mM EDTA. An ELISA method is used to measure the phosphorylation of ATF2 at Thr 69. High binding 96-well plates (Corning 3369) are coated with 50 μl of kinase reaction for 1 hour at 37° C. The coated plates are washed with 200 μl washing buffer (25 mM Tris HCl, pH 8.3, 192 mM glycine, 0.1% SDS and 0.05% Tween-20) three times. The plates are then washed three times with SuperBlock in TBS (Pierce, 37535). After blocking, plates are incubated with 50 μl of rabbit anti-phospho-ATF2 antibody (Cell Signaling, 9221 L, 1:500) for 30 minutes at 37° C. Plates are washed three times with washing buffer prior to incubation with 50 μl HRP-conjugated goat anti-rabbit antibody (Cell Signaling, 7074, 1:500) for 30 minutes at 37° C. Plates are then washed three times with washing buffer before incubation with 50 μl of Ultra TMB-ELISA (Pierce, 34028) for 8 minutes at room temperature. Finally, 50 μl of phosphoric acid (1 M) is added to stop reactions and plate absorbance is read at 450 nm on a SpectraMax 250 plate reader.
A selectivity panel is used to test the cross-reactivity of compounds of the invention with the β and γ isoforms of p38 MAP kinase, Src^p60 and JNK2α2. The p38β, p38γ, and JNK2α2 assays are described in Example 4. The Src^p60 assay measures the ability of compounds to inhibit Src^p60-catalyzed phosphorylation of a peptide substrate.

[1] = test system: TNFα release from THP-1 cells; test: TNFα release from LPS-stimulated THP-1 cells; type: cell-based; settings: Homo sapiens, THP-1, 18 h, LPS 10 μg/ml, 18 hours; read-out: TNFα (THP-1) IC50
How it was run: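 THP-1 cells (10^6 cells/ml on resuspension) preincubated with compound 30 min at 37°C, 5% CO2, final DMSO ≤0.5%, then stimulated with 10 μg/ml LPS for 18 h (TNFα). Supernatants collected for TNFα analysis.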

c-RAF = target: T2, c-RAF (Homo sapiens, UniProt P04049); test: Broad selectivity panel, 32P incorporation; type: biochemical; settings: 40 μM ATP, read-out: Percent inhibition c-RAF; for inhibition at 0.1 µM: 0.1 μM compound; for inhibition at 1 µM: 1 μM compound
T2 construct: purchased Upstate (Charlottesville, Va.)
T2 sequence (P04049 whole entry, species assumed): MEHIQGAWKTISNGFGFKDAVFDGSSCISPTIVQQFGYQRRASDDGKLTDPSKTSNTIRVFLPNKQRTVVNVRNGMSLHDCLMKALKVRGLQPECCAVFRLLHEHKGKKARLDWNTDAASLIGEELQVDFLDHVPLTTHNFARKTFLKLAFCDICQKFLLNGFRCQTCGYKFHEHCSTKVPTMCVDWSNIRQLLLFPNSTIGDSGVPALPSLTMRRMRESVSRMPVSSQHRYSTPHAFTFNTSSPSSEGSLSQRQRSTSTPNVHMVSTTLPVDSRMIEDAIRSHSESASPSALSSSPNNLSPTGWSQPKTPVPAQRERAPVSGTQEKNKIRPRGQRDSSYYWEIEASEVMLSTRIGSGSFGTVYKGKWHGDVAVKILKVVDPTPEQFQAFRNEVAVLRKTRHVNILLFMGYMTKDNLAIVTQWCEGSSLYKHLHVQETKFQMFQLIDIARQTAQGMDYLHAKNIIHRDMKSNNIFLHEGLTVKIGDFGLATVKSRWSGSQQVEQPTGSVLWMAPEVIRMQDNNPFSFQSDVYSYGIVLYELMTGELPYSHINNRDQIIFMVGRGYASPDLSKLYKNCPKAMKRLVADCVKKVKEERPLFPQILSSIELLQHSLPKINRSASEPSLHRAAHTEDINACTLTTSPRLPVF
Procedure: (§1) Various compounds of the present invention are screened against a panel of 24 additional kinases (Upstate, Charlottesville, Va.). Compounds are tested 0.1 μM and 1 μM in reactions containing 40 μM ATP. Incorporation of radiolabeled phosphate (^32P) into each kinase substrate is measured in the presence and absence of test compound. Results are reported as the percent decrease in the amount of ^32P incorporated into the substrate in the presence of compound, compared to buffer control.

JNK3-His = target: T3, JNK3-His (Homo sapiens, UniProt P53779); test: Broad selectivity panel, 32P incorporation; type: biochemical; settings: 40 μM ATP, read-out: Percent inhibition JNK3-His; for inhibition at 0.1 µM: 0.1 μM compound; for inhibition at 1 µM: 1 μM compound
T3 construct: His; purchased Upstate (Charlottesville, Va.)
T3 sequence (P53779 whole entry): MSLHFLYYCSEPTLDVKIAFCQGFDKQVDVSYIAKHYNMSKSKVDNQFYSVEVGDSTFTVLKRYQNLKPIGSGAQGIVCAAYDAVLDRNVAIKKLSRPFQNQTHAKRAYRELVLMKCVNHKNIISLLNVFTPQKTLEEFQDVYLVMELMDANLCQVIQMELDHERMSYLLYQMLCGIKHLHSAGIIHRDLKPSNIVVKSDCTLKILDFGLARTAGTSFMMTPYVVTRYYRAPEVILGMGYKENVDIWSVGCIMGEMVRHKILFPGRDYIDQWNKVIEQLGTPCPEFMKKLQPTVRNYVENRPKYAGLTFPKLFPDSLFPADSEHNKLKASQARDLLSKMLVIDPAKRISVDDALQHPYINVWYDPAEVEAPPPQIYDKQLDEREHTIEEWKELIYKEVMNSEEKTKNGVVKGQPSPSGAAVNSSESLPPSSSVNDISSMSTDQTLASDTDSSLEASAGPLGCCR
Procedure: as §1

ROCK-II = test: Broad selectivity panel, 32P incorporation; type: biochemical; settings: 40 μM ATP
Procedure: as §1

GSK3β = target: T4, GSK3β (Homo sapiens, UniProt P49841); test: Broad selectivity panel, 32P incorporation; type: biochemical; settings: 40 μM ATP, read-out: Percent inhibition GSK3β; for inhibition at 0.1 µM: 0.1 μM compound; for inhibition at 1 µM: 1 μM compound
T4 construct: purchased Upstate (Charlottesville, Va.)
T4 sequence (P49841 whole entry, species assumed): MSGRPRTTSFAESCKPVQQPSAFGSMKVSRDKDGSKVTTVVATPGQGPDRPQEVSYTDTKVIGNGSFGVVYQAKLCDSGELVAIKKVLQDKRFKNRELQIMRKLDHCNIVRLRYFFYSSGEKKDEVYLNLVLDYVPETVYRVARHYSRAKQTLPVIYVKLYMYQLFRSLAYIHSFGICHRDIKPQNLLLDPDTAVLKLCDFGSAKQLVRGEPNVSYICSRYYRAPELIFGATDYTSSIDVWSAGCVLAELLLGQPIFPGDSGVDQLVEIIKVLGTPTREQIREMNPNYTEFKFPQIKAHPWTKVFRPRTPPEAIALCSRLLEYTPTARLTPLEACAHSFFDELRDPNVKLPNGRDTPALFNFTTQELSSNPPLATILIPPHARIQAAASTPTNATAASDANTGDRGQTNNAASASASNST
Procedure: as §1

PDGFR α = target: T5, PDGFR α (Homo sapiens, UniProt P16234); test: Broad selectivity panel, 32P incorporation; type: biochemical; settings: 40 μM ATP, read-out: Percent inhibition PDGFR α; for inhibition at 0.1 µM: 0.1 μM compound; for inhibition at 1 µM: 1 μM compound
T5 construct: purchased Upstate (Charlottesville, Va.)
T5 sequence (P16234 24-1089, species assumed): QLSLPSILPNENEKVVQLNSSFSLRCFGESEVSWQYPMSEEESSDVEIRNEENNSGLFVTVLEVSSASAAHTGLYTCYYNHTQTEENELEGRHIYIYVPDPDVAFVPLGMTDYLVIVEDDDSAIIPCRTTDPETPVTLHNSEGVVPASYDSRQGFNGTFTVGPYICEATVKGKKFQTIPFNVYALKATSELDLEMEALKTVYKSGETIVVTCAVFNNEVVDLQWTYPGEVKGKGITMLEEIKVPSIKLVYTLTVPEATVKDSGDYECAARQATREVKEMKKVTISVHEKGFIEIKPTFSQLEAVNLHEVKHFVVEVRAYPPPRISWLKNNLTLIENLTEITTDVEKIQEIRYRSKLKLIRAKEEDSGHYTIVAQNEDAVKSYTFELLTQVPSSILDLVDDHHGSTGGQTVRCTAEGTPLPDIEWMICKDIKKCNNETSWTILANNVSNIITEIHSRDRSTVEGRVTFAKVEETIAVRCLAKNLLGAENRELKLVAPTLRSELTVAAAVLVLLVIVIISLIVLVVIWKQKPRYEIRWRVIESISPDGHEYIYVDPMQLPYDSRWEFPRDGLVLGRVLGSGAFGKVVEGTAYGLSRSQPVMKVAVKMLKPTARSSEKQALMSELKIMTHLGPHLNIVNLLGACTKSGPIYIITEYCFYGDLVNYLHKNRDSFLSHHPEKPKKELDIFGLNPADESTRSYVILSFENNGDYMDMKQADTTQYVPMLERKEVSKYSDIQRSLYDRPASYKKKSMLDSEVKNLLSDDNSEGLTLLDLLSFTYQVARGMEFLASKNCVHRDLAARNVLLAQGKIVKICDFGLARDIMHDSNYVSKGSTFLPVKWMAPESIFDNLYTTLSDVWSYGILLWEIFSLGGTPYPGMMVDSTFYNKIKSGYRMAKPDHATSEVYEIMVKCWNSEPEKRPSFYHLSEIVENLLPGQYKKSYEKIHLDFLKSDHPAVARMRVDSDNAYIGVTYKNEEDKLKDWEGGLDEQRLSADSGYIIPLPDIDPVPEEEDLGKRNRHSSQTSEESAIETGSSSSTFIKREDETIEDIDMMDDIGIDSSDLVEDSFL
Procedure: as §1

T1 sequence (Q15759 whole entry, the tested form may be a part): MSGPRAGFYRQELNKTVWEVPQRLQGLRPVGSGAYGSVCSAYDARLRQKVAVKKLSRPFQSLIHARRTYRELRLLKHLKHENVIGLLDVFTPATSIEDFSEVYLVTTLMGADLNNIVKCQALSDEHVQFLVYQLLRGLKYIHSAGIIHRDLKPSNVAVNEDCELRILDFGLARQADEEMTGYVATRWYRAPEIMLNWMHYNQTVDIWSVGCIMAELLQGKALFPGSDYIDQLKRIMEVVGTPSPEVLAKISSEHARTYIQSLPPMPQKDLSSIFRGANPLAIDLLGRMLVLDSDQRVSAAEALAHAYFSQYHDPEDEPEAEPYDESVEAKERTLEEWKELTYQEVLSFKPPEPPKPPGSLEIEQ

Compound	inhibition at 0.1 µM (c-RAF) [%]	inhibition at 1 µM (c-RAF) [%]	inhibition at 0.1 µM (JNK3-His) [%]	inhibition at 1 µM (JNK3-His) [%]	inhibition at 0.1 µM (GSK3β) [%]	inhibition at 1 µM (GSK3β) [%]	inhibition at 0.1 µM (PDGFR α) [%]	inhibition at 1 µM (PDGFR α) [%]	IC50 (p38β) [nM]	IC50 [1] [nM]	Percent inhibition ROCK-II (ROCK-II; 0.1 μM compound)	Percent inhibition ROCK-II (ROCK-II; 1 μM compound)	selectivity over p38β as compared to p38α (p38β) [fold]
CN1[C@@H]2CC[C@H]1C[C@@H](Nc1nccc(-c3c(-c4ccc(F)cc4)nc4occn34)n1)C2 [CCLXXXI]	-4	8	19	75	6	19	11	21	24.6	3.64	10	9	–
CN(C)CC(C)(C)CNc1nccc(-c2c(-c3ccc(F)cc3)nc3occn23)n1 [CXIX]	-3	3	19	56	11	13	26	10	288	33.1	16	−8	–
Fc1ccc(-c2nc3occn3c2-c2ccnc(N[C@@H]3CN4CCC3CC4)n2)cc1 [LXXI]	7	42	-7	59	-8	10	10	9	114	19.1	−7	10	–
Fc1ccc(-c2nc3occn3c2-c2ccnc(NC3CN4CCC3CC4)n2)cc1 (stereo not drawn) [LXXXIV]	–	–	–	–	–	–	–	–	1290	9.28	–	–	–
Fc1ccc(-c2nc3occn3c2-c2ccnc(N[C@H]3CN4CCC3CC4)n2)cc1 [LXXXVII]	15	58	19	61	6	8	-6	-11	150	1.87	2	8	17

More lines, main results first:

inhibition at 0.1 µM (c-RAF) [%]	inhibition at 1 µM (c-RAF) [%]	inhibition at 0.1 µM (JNK3-His) [%]	inhibition at 1 µM (JNK3-His) [%]	inhibition at 0.1 µM (GSK3β) [%]	inhibition at 1 µM (GSK3β) [%]	inhibition at 0.1 µM (PDGFR α) [%]	inhibition at 1 µM (PDGFR α) [%]	Compound	IC50 (p38β) [nM]	IC50 [1] [nM]	Percent inhibition ROCK-II (ROCK-II; 0.1 μM compound)	Percent inhibition ROCK-II (ROCK-II; 1 μM compound)	selectivity over p38β as compared to p38α (p38β) [fold]
32	83	97	101	15	57	0	-9	CS(=O)(=O)N1CCC(Nc2nccc(-c3c(-c4ccc(F)cc4)nc4occn34)n2)CC1 [CCLXXIX]	1.8	5.1	10	12	–
26	66	78	100	16	66	23	17	CC(=O)N1CCC(Nc2nccc(-c3c(-c4ccc(F)cc4)nc4occn34)n2)CC1 [CCLXXVIII]	6.3	9.26	−6	6	–
21	75	39	84	5	14	1	8	Fc1ccc(-c2nc3occn3c2-c2ccnc(NC3CCNCC3)n2)cc1 [CCLXXX]	95.4	7.89	8	10	–
